Patent US20220144812A1, “QUINOLINE DERIVATIVES AND THEIR USE FOR THE TREATMENT OF CANCER” (Epizyme, Inc., priority 2019, published 2022)
Where two headings read alike, the source gives them in different places.

Tests used:
EP300 (P300(1048-1664)) = target: T1, EP300 (P300(1048-1664)) (Homo sapiens, UniProt Q09472); assay: Biochemical assay for EP300, SAMDI; conditions: EP300, SAMDI; read-out: EP300 Biochemistry IC50
T1 construct: P300(1048-1664)
T1 sequence (Q09472 1048-1664): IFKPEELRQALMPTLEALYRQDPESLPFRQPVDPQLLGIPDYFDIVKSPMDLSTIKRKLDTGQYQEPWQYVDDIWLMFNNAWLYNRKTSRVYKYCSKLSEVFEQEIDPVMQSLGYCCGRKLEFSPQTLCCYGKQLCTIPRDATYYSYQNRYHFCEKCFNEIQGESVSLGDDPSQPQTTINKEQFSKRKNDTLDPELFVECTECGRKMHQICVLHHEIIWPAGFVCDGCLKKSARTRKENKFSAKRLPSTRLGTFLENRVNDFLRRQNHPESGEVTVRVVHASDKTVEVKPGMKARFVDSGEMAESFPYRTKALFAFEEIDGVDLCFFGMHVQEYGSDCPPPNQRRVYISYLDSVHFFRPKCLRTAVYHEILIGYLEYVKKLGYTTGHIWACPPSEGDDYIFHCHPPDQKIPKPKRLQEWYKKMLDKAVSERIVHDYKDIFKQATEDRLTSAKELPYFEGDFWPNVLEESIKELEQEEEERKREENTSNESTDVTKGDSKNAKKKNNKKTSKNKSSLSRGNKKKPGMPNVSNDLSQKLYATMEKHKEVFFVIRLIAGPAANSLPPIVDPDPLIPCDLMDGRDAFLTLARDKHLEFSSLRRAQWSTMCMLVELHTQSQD
From the text: The following example describes materials and methods relating to a biochemical assay for EP300. IC50 values (micromolar (μM)) are summarized in Table 1, Table 2, and Table 3 under the column labeled: “EP300 Biochemistry IC50 (micromolar).”

647V cells = assay: High throughput proliferation (HTP) assay; format: cell-based; conditions: high throughput proliferation, read-out: CREBBP HTP IC50
Summary of the method: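 Proliferation IC50 (micromolar) derived from a 7-day CellTiter-Glo viable-cell readout in 647V cells exposed, in triplicate, to rising compound concentrations; cells grown in DMEM plus 15% heat-inactivated FBS at 37° C under 5% CO2.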

[1] = tested on: H3K18Ac in HB-CLS-2 cells; assay: H3K18AC in-cell western (ICW) assay; format: cell-based; conditions: H3K18Ac in-cell western, read-out: CREBBP ICW IC50
Summary of the method: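 In-cell western: after methanol fixation, blocking, overnight 4° C anti-H3K18Ac staining, then 800CW secondary plus DRAQ5 for DNA content, integrated intensities were scanned at 800 and 700 nm. Before this, compound exposure lasted 2 hr at 37° C in HB-CLS-2 cells plated 16–24 hours earlier. Values expressed as IC50 (μM).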

CREBBP (1084-1701) = target: T2, CREBBP (1084-1701) (Homo sapiens, UniProt Q92793); assay: Biochemical assay for CREBBP (1084-1701), SAMDI; conditions: SAMDI, read-out: CREBBP Biochemistry IC50
T2 construct: measured in the following biochemical assay using CREBBP (1084-1701); purchased
T2 sequence (Q92793 1084-1701): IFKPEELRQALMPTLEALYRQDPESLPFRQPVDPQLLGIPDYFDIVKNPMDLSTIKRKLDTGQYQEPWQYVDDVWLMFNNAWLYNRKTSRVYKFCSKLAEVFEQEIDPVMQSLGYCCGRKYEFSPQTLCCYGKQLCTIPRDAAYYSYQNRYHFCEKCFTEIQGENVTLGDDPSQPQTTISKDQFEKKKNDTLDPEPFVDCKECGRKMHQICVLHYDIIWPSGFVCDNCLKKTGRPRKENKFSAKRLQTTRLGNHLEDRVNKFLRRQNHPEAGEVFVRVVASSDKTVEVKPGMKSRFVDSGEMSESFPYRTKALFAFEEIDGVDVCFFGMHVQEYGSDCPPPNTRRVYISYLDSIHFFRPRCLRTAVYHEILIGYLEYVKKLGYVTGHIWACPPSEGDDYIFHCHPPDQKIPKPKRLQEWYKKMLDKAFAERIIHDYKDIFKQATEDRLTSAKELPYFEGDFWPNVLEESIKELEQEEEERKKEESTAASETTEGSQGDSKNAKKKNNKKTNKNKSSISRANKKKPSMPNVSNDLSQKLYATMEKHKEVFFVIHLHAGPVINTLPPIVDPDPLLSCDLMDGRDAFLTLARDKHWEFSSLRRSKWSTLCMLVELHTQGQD
Summary of the method: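 Acetyltransferase activity measured by SAMDI mass spectrometry after capture on biochip. Enzyme sat with compound 30 min at RT before acetyl-CoA and biotinylated H3 11-25 (K14R, K23R) peptide were added for 30 min at RT. Formic acid quench, bicarbonate neutralisation; IC50 values reported.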

[2] = Homo sapiens, 647-V, 647V cells

| IC50 (EP300 (P300(1048-1664))) | IC50 [1] | IC50 (CREBBP (1084-1701)) | IC50 ([1]; HB-CLS-2 cells) | SMILES | IC50 (647V cells; Homo sapiens, 647-V) | IC50 (647V cells; [2]) | IC50 (647V cells; 647V cells) |
| --- | --- | --- | --- | --- | --- | --- | --- |
| 44 µM | 16 µM | 54 µM | – | CCn1ncc(CN(C)C(=O)c2nc(-c3cc(C(=O)NCCN4CCCC4)n(Cc4ccc(OC)cc4)n3)nc3ccc(Cl)cc23)c1C [Compound 177] | 3.4 µM | – | – |
| 55 µM | 18 µM | 115 µM | – | CCn1ncc(CN(C)C(=O)c2nc(-n3cc4c(n3)CNCC4)nc3ccc(Cl)cc23)c1C [Compound 179] | 20 µM | – | – |
| 19 µM | 19 µM | 70 µM | – | CCn1ncc(CN(C)C(=O)c2nc(-n3cc(C)cn3)nc3ccc(Cl)cc23)c1C [Compound 182] | 7.8 µM | – | – |
| 56 µM | 20 µM | 98 µM | – | CCn1ncc(CN(C)C(=O)c2cc(-c3cn(C)c(OC)n3)nc3cc(Cl)ccc23)c1C [Compound 185] | 20 µM | – | – |
| 64 µM | 20 µM | 114 µM | – | CCn1ncc(CN(C)C(=O)c2cc(-n3ncc4c3CNCC4)nc3ccc(Cl)cc23)c1C [Compound 186] | 7.8 µM | – | – |
| 36 µM | – | 50 µM | 20 µM | CCn1ncc(CN(C)C(=O)c2nc(-c3cnc(CO)n3C)nc3ccc(Cl)cc23)c1C [Compound 208] | – | 20 µM | – |
| 100 µM | – | 141 µM | 20 µM | CCn1ncc(CN(C)C(=O)c2nc(N3CCn4cc(C)nc4C3)nc3ccc(Cl)cc23)c1C [Compound 220] | – | 20 µM | – |
| 41 µM | – | 50 µM | 20 µM | CCn1ncc(CN(C)C(=O)c2cc(-c3cn[nH]c3N)nc3ccc(Cl)cc23)c1C [Compound 227] | – | 20 µM | – |
| 14 µM | – | 25 µM | 20 µM | CCn1ncc(CN(C)C(=O)c2nc(-c3cc(CNC)n(C)n3)nc3ccc(Cl)cc23)c1C [Compound 380] | – | 20 µM | – |
| 0.012 µM | – | 0.033 µM | 0.13 µM | CCn1ncc(CN(C)C(=O)c2nc(-c3cc(NC(=O)CNC)cc(OC)c3)nc3ccc(Cl)cc23)c1C [Compound 384] | – | 0.1 µM | – |
| 0.01 µM | – | 0.015 µM | 0.2 µM | CCn1ncc(CN(C)C(=O)c2cc(-c3ccc4c[nH]nc4n3)nc3ccc(Cl)cc23)c1C [Compound 386] | – | 0.31 µM | – |
| 0.0075 µM | – | 0.016 µM | 0.12 µM | CCn1ncc(CN(C)C(=O)c2nc(-c3ccc(NC4CCOCC4)c(C)c3)nc3ccc(Cl)cc23)c1C [Compound 387] | – | 0.088 µM | – |
| 0.011 µM | – | 0.034 µM | 0.23 µM | CCn1ncc(CN(C)C(=O)c2cc(-c3ccc(NCCNC)c(C)n3)nc3ccc(Cl)cc23)c1C [Compound 388] | – | 0.066 µM | – |
| 0.0074 µM | – | 0.017 µM | 0.082 µM | CCn1ncc(CN(C)C(=O)c2cc(-c3ccc(NC4CNC4)c(C)n3)nc3ccc(Cl)cc23)c1C [Compound 389] | – | 0.073 µM | – |
| 0.14 µM | – | 0.033 µM | 0.65 µM | CCn1ncc(CN(C)C(=O)c2nc(-c3cc(OC)c4cn[nH]c4c3)nc3ccc(Cl)cc23)c1C [Compound 390] | – | 0.68 µM | – |
| 4.1 µM | – | 8.5 µM | 3.2 µM | CCn1ncc(CN(C)C(=O)c2nc(-c3cc(C(=O)NC)nn3C)nc3ccc(Cl)cc23)c1C [Compound 391] | – | 3.1 µM | – |
| 50 µM | – | 50 µM | 20 µM | CCn1ncc(CN(C)C(=O)c2nc(-c3cc(Cl)cc(C(=O)NC)c3)nc3ccc(Cl)cc23)c1C [Compound 392] | – | 20 µM | – |

| IC50 (EP300 (P300(1048-1664))) | IC50 [1] | IC50 (CREBBP (1084-1701)) | IC50 ([1]; HB-CLS-2 cells) | SMILES | IC50 (647V cells; Homo sapiens, 647-V) | IC50 (647V cells; [2]) | IC50 (647V cells; 647V cells) |
| --- | --- | --- | --- | --- | --- | --- | --- |
| 3.8 µM | – | 2 µM | 5.4 µM | CCn1ncc(CN(C)C(=O)c2nc(-c3cc(Cl)cc(CNC4CCNCC4)c3)nc3ccc(Cl)cc23)c1C [Compound 394] | – | 4.2 µM | – |
| 0.037 µM | – | 0.037 µM | 0.27 µM | CCn1ncc(CN(C)C(=O)c2cc(-c3ccc(NCC(=O)NC)c(C)n3)nc3ccc(Cl)cc23)c1C [Compound 395] | – | 0.41 µM | – |
| 35 µM | – | 50 µM | 20 µM | CCn1ncc(CN(C)C(=O)c2nc(-c3cc(C(=O)Nc4ccccc4)n(C)n3)nc3ccc(Cl)cc23)c1C [Compound 396] | – | 8.4 µM | – |
| 0.042 µM | – | 0.043 µM | 0.13 µM | CCn1ncc(CN(C)C(=O)c2cc(-c3cc(NC(=O)CNC)cc(C)n3)nc3ccc(Cl)cc23)c1C [Compound 397] | – | 0.16 µM | – |
| 22 µM | – | 24 µM | 8.2 µM | CCn1ncc(CN(C)C(=O)c2nc(-c3cc(C)nc(CNC)c3)nc3ccc(Cl)cc23)c1C [Compound 398] | – | 4.8 µM | – |
| 0.013 µM | – | 0.029 µM | 0.11 µM | CCn1ncc(CN(C)C(=O)c2cc(-c3cc4[nH]cnc4cn3)nc3ccc(Cl)cc23)c1C [Compound 400] | – | 0.11 µM | – |
| 0.018 µM | – | 0.056 µM | 0.12 µM | CCn1ncc(CN(C)C(=O)c2cc(-c3cc4[nH]ncc4c(C)n3)nc3ccc(Cl)cc23)c1C [Compound 401] | – | 0.13 µM | – |
| 0.3 µM | – | 0.062 µM | 0.35 µM | CCn1ncc(CN(C)C(=O)c2nc(-c3ccc4c(N)[nH]nc4c3C)nc3ccc(Cl)cc23)c1C [Compound 402] | – | 0.31 µM | – |
| 22 µM | – | 50 µM | 12 µM | CCn1ncc(CN(C)C(=O)c2nc(-c3cc(CNC)nn3C)nc3ccc(Cl)cc23)c1C [Compound 403] | – | 10 µM | – |
| 0.023 µM | – | 0.0025 µM | 0.17 µM | CCn1ncc(CN(C)C(=O)c2cc(-c3ccc(NC)c(C)n3)nc3ccc(Cl)cc23)c1C [Compound 404] | – | 0.12 µM | – |
| 2.7 µM | – | 5.7 µM | 1.6 µM | CCn1ncc(CN(C)C(=O)c2nc(-n3cc(CCN(C)C)cn3)nc3ccc(Cl)cc23)c1C [Compound 405] | – | 1.7 µM | – |
| 50 µM | – | 50 µM | 20 µM | CCn1ncc(CN(C)C(=O)c2nc(-c3cc(C#N)n(C)n3)nc3ccc(Cl)cc23)c1C [Compound 406] | – | 20 µM | – |
| 0.95 µM | – | 0.43 µM | 1.1 µM | CCn1ncc(CN(C)C(=O)c2nc(-c3cc(C)cc(NCC(=O)NC)c3)nc3ccc(Cl)cc23)c1C [Compound 408] | – | 0.89 µM | – |
| 0.023 µM | – | 0.074 µM | 0.23 µM | CCn1ncc(CN(C)C(=O)c2cc(-c3cc(NCCNC)cc(C)n3)nc3ccc(Cl)cc23)c1C [Compound 409] | – | 0.054 µM | – |
| 1.4 µM | – | 5.5 µM | 6.1 µM | CCn1ncc(CN(C)C(=O)c2cc(-c3cc(C)c(OCCNC)cn3)nc3ccc(Cl)cc23)c1C [Compound 410] | – | 2.8 µM | – |
| 7.4 µM | – | 21 µM | 6.4 µM | CCn1ncc(CN(C)C(=O)c2cc(-c3cnc(OCCNC)cn3)nc3ccc(Cl)cc23)c1C [Compound 413] | – | 5 µM | – |
| 44 µM | – | 30 µM | 20 µM | CCn1ncc(CN(C)C(=O)c2nc(-c3ccc(OCCNC)nn3)nc3ccc(Cl)cc23)c1C [Compound 414] | – | 20 µM | – |

| SMILES | IC50 (EP300 (P300(1048-1664))) | IC50 [1] | IC50 (CREBBP (1084-1701)) | IC50 ([1]; HB-CLS-2 cells) | IC50 (647V cells; Homo sapiens, 647-V) | IC50 (647V cells; [2]) | IC50 (647V cells; 647V cells) |
| --- | --- | --- | --- | --- | --- | --- | --- |
| CCn1ncc(CN(C)C(=O)c2nc(-c3cc(C)cc(NC4CCNC4)c3)cc3ccc(Cl)cc23)c1C (stereo not drawn) [Compound 383] | 0.0051 µM | – | 0.017 µM | 0.19 µM | – | – | 0.063 µM |
| CCn1ncc(CN(C)C(=O)c2cc(-c3ccc(OCCNC)c(Cl)c3)nc3ccc(P(C)(C)=O)cc23)c1C [Compound 407] | 0.7 µM | – | 2.1 µM | 18 µM | – | – | 7.4 µM |
